The text below walks through data of ChEMBL document CHEMBL3991601, “The target landscape of clinical kinase drugs” (Science, 2017).

Activity calls are given as the source filed them.

The target of experiment [1] is AP2-associated protein kinase 1 (Homo sapiens, UniProt Q2M2I8).
The next experiment deals with Activin receptor type-2B (Homo sapiens, UniProt Q13705).
Experiment [2] deals with T1, Bone morphogenetic protein receptor type-2 (Homo sapiens, UniProt Q13873).
T1 sequence (Q13873 whole entry): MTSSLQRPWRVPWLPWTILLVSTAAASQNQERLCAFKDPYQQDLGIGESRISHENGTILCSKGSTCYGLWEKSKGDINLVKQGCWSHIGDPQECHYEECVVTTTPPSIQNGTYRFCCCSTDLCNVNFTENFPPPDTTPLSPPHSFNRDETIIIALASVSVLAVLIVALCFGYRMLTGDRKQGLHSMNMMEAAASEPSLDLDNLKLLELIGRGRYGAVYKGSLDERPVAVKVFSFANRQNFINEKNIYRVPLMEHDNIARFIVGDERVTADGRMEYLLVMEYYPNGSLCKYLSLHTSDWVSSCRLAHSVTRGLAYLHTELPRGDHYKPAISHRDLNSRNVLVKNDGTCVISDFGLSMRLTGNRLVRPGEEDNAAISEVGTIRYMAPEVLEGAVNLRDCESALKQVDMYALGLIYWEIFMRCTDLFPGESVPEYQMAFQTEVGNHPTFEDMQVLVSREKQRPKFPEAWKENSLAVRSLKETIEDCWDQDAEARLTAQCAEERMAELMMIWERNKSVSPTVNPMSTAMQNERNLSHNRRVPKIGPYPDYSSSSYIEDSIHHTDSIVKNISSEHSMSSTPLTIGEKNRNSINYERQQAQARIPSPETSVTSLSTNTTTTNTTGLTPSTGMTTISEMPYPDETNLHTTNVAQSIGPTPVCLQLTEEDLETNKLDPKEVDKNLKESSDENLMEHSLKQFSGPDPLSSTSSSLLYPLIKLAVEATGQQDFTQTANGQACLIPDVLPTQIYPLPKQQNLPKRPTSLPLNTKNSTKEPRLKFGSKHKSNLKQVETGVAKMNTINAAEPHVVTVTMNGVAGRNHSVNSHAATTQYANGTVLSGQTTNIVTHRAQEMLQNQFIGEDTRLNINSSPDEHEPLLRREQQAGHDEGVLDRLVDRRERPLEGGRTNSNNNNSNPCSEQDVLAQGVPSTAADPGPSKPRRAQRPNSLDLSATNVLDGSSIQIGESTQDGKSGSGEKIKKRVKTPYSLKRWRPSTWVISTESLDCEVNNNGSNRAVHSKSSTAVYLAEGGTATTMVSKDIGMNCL

In experiment [3] the target is Guanine nucleotide-binding protein G(i) subunit alpha-2 (Homo sapiens, UniProt P04899).
In experiment [4] the target is T2, Dual specificity mitogen-activated protein kinase kinase 3 (Homo sapiens, UniProt P46734).
T2 sequence (P46734 whole entry): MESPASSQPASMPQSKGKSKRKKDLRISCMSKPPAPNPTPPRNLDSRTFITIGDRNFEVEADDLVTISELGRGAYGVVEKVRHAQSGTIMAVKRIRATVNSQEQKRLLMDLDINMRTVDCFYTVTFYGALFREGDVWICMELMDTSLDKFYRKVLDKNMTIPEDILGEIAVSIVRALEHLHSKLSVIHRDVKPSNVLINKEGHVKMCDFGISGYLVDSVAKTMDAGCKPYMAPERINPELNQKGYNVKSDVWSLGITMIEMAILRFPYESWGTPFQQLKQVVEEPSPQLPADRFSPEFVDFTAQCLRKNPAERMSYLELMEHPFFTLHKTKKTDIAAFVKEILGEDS

Experiment [5] concerns the target NADH dehydrogenase [ubiquinone] 1 alpha subcomplex subunit 13 (Homo sapiens, UniProt Q9P0J0).
Another experiment has as its target DNA topoisomerase 2-beta (Homo sapiens, UniProt Q02880).
Experiment [6] has as its target T3, Uncharacterized protein FLJ45252 (Homo sapiens, UniProt Q6ZSR9).
T3 sequence (Q6ZSR9 whole entry): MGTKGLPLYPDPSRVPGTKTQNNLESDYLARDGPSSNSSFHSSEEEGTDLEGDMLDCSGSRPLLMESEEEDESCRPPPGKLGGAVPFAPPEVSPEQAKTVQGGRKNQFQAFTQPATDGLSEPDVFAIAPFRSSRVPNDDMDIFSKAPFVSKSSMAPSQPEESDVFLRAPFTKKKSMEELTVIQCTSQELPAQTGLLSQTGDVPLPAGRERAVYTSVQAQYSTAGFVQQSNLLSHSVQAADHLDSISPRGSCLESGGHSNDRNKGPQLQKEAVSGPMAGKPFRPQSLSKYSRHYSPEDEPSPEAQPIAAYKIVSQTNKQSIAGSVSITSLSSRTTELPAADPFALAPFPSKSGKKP
The settings on record: read-out: Kd apparent; k-562, colo 205, sk-n-be(2) and mv-4-11.

Experiment [7] concerns the target Dual specificity mitogen-activated protein kinase kinase 2 (Homo sapiens, UniProt P36507).
Note: in the data inactive means no Kd found up to 30 µM.

Activin receptor type-2B, sequence (Q13705 whole entry): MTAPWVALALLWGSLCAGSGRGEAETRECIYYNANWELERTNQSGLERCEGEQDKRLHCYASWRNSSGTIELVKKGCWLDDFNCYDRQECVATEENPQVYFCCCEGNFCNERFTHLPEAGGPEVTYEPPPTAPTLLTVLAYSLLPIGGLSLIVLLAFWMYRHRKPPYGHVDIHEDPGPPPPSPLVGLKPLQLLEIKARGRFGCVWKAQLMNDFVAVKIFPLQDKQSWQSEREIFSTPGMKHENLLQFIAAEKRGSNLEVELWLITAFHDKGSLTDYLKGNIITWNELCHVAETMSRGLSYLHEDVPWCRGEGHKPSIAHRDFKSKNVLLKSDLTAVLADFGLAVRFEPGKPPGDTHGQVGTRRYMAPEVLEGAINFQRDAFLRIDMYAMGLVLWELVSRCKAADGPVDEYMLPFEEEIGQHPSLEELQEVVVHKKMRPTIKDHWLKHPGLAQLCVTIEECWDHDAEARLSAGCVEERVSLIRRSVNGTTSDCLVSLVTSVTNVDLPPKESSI
Dual specificity mitogen-activated protein kinase kinase 2, sequence (P36507 whole entry): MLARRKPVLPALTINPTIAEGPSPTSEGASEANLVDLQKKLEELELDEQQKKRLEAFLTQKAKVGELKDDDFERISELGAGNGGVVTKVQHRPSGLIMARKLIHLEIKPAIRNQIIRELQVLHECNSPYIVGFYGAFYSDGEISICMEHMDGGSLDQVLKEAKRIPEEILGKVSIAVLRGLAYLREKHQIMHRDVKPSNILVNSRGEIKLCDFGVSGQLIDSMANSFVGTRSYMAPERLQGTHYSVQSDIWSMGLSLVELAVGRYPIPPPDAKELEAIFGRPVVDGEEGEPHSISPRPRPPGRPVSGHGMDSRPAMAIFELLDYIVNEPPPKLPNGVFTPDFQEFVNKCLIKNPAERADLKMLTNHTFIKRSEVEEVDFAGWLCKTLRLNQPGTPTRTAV
Guanine nucleotide-binding protein G(i) subunit alpha-2, sequence (P04899 whole entry): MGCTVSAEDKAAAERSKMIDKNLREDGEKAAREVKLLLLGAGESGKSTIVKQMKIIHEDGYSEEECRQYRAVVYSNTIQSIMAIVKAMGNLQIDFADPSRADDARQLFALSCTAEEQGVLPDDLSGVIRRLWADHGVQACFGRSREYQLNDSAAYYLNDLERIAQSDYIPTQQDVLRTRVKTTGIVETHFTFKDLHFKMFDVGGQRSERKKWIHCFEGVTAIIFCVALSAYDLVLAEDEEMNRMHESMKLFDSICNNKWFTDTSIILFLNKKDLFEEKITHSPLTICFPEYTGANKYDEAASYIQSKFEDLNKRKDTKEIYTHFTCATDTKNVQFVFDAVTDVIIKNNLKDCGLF
DNA topoisomerase 2-beta, sequence (Q02880 whole entry): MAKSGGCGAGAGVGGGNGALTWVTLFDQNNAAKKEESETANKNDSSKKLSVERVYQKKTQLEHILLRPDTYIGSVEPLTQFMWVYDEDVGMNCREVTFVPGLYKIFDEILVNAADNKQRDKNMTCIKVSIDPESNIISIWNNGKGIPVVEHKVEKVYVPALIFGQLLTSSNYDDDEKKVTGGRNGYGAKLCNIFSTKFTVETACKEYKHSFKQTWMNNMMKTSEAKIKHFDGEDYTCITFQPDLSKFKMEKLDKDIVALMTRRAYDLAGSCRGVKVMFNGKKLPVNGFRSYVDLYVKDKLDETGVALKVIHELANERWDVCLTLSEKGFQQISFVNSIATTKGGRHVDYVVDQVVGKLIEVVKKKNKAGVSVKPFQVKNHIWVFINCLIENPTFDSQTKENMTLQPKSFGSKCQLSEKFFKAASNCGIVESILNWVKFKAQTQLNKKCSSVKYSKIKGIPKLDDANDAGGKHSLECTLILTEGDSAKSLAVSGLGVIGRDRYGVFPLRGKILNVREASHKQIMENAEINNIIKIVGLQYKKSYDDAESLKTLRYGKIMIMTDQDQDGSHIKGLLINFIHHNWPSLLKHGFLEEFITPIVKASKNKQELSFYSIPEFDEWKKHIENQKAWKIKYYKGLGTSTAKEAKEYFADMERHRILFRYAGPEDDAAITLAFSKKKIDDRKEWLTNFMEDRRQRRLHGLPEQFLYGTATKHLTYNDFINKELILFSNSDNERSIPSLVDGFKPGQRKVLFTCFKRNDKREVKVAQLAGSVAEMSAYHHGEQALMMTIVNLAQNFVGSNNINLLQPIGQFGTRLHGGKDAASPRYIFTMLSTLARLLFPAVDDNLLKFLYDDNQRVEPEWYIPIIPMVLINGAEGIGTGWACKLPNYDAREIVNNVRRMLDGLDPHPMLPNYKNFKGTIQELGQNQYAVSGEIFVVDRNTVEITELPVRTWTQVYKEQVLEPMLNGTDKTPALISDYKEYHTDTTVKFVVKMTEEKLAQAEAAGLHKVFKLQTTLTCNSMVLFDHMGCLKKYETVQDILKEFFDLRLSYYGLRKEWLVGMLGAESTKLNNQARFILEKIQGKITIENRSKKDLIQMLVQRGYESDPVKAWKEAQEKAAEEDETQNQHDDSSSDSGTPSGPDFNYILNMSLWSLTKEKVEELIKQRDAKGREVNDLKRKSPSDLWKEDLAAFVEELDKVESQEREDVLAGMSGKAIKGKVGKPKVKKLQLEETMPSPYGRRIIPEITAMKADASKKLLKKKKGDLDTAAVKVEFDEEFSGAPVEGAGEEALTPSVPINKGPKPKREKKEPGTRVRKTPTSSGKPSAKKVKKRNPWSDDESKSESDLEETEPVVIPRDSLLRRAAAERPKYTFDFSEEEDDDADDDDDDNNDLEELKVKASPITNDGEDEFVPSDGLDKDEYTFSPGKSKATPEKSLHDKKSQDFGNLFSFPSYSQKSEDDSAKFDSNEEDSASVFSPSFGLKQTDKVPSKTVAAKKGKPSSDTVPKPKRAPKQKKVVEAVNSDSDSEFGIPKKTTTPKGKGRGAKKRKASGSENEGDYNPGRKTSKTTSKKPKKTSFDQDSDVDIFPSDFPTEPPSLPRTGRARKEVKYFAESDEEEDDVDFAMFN
NADH dehydrogenase [ubiquinone] 1 alpha subcomplex subunit 13, sequence (Q9P0J0 whole entry, one chain of several): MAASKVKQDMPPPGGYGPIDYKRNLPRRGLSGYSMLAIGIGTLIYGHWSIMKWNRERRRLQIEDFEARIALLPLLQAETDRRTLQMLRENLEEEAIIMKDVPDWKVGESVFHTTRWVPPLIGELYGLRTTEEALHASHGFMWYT
AP2-associated protein kinase 1, sequence (Q2M2I8 whole entry): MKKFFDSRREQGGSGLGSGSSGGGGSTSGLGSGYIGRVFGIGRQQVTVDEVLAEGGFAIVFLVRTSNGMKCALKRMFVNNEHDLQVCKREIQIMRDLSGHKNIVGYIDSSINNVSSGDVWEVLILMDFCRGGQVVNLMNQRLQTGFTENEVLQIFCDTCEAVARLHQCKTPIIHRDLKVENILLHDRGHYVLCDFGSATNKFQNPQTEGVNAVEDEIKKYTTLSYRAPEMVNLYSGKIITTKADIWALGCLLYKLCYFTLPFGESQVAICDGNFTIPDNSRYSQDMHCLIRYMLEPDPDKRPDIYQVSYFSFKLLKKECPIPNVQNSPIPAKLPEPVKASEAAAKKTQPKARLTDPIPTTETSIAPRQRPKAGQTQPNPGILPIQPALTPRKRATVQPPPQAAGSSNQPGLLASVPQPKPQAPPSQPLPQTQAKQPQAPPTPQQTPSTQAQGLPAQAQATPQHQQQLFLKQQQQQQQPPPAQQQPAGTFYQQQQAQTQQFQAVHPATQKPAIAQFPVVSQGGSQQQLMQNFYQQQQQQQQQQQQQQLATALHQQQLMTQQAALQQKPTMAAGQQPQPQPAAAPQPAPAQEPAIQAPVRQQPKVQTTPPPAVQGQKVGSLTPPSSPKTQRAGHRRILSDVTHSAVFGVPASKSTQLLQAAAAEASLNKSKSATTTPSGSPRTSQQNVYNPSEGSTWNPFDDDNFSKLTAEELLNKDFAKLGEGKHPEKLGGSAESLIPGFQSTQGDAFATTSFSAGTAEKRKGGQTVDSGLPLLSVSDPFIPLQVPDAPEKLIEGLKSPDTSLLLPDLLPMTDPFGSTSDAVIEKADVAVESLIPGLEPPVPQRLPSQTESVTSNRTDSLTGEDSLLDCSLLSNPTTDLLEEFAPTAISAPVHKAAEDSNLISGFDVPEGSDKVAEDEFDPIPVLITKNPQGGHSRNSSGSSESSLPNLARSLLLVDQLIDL

Turning to `CCN(CCCOc1ccc2c(Nc3cc(CC(=O)Nc4cccc(F)c4)n[nH]3)ncnc2c1)CCOP(=O)(O)O` [BARASERTIB], the Kd (in experiment [1]; on Activin receptor type-2B; in experiment [2]; in experiment [3]; in experiment [4]; in experiment [5]) was > 30 µM (inactive) each time. In addition, the Kd (at DNA topoisomerase 2-beta; in experiment [6]) was > 30 µM (inactive) throughout.

Take `C=CCn1c(=O)c2cnc(Nc3ccc(N4CCN(C)CC4)cc3)nc2n1-c1cccc(C(C)(C)O)n1` [ADAVOSERTIB]: the Kd (in experiment [1]; at Activin receptor type-2B; in experiment [2]; in [3]; in experiment [4]; in experiment [5]) was > 30 µM (inactive) each time. Moreover, the Kd (at DNA topoisomerase 2-beta; in experiment [6]) was > 30 µM (inactive) in each case.

For the compound `O=C(NOC[C@H](O)CO)c1ccc(F)c(F)c1Nc1ccc(I)cc1F` [MIRDAMETINIB], the Kd (in experiment [1]; on Activin receptor type-2B; in experiment [2]; in experiment [4]; in experiment [5]; at DNA topoisomerase 2-beta) was > 30 µM (inactive) throughout. In addition, the Kd in [6] was > 30 µM (inactive).

On to `COc1cc2c(N3CCN(C(=O)Nc4ccc(OC(C)C)cc4)CC3)ncnc2cc1OCCCN1CCCCC1` [TANDUTINIB], for which the Kd (in experiment [5]; on DNA topoisomerase 2-beta; in experiment [6]) was > 30 µM (inactive) each time.

As for `COc1cc2c(Oc3ccc4[nH]c(C)cc4c3F)ncnc2cc1OCCCN1CCCC1` [CEDIRANIB], the Kd (in experiment [5]; on DNA topoisomerase 2-beta) was > 30 µM (inactive) each time.

For `Cn1cnc2c(F)c(Nc3ccc(Br)cc3Cl)c(C(=O)NOCCO)cc21` [SELUMETINIB], the Kd is > 30 µM (inactive) in experiment [3], > 30 µM (inactive) in experiment [5], > 30 µM (inactive) on DNA topoisomerase 2-beta and 0.807 µM (active) in [6].

With `COc1ccc(-c2ccc3ncc4c(c3c2)n(-c2ccc(N3CCNCC3)c(C(F)(F)F)c2)c(=O)n4C)cn1` [BGT-226 FREE BASE], the Kd (in experiment [1]; on Activin receptor type-2B; in experiment [2]; in experiment [7]; in [4]; in experiment [5]) was > 30 µM (inactive) in each case. Moreover, the Kd (on DNA topoisomerase 2-beta; in [6]) was > 30 µM (inactive) in each case.

As for `CNC(=O)c1ccc(Nc2ncc(C(F)(F)F)c(NCc3nccnc3N(C)S(C)(=O)=O)n2)cc1` [DEFACTINIB], the Kd (in [1]; at Activin receptor type-2B; in experiment [2]; in experiment [7]; in experiment [4]; in experiment [5]) was > 30 µM (inactive) in each case. Further, the Kd (on DNA topoisomerase 2-beta; in [6]) was > 30 µM (inactive) each time.

Regarding `CN(C)C/C=C/C(=O)Nc1cc2c(Nc3ccc(F)c(Cl)c3)ncnc2cc1O[C@H]1CCOC1` [AFATINIB], the Kd (in [3]; in [5]; at DNA topoisomerase 2-beta; in [6]) was > 30 µM (inactive) in each case.

With `Cn1c(=O)c(F)c(Nc2ccc(I)cc2F)c2c(=O)n(C[C@@H](O)CO)cnc21` [TAK-733], the Kd in experiment [1] is > 30 µM (inactive); at Activin receptor type-2B, > 30 µM (inactive); in [2], > 30 µM (inactive); in experiment [7] it was 0.02 µM (active); in experiment [4], > 30 µM (inactive); on DNA topoisomerase 2-beta, > 30 µM (inactive). The Kd in experiment [6] was > 30 µM (inactive).

Consider `CN(c1ncccc1CNc1nc(Nc2ccc3c(c2)CC(=O)N3)ncc1C(F)(F)F)S(C)(=O)=O` [PF-00562271], for which the Kd (in [1]; on Activin receptor type-2B; in experiment [2]; in experiment [3]; in experiment [4]; in experiment [5]) was > 30 µM (inactive) each time. Moreover, the Kd (at DNA topoisomerase 2-beta; in [6]) was > 30 µM (inactive) throughout.

With `CC[C@@](C)(Nc1ccnc(-c2c[nH]c3ncccc23)n1)C(=O)NCC(F)(F)F` [DECERNOTINIB], the Kd was 4.25 µM (active) in [1]; > 30 µM (inactive) on Activin receptor type-2B; > 30 µM (inactive) in experiment [2]; > 30 µM (inactive) in experiment [7]; > 30 µM (inactive) in [5]; 0.148 µM (active) on DNA topoisomerase 2-beta. In experiment [6], the Kd was 2.64 µM (active).

For the compound `CC(C)(O)CC(=O)NCCn1ccc2ncnc(Nc3ccc(Oc4cccc(C(F)(F)F)c4)c(Cl)c3)c21` [TAK-285], the Kd (in experiment [1]; at Activin receptor type-2B; in experiment [2]; in experiment [3]; in [4]; in experiment [5]) was > 30 µM (inactive) in each case. The Kd (at DNA topoisomerase 2-beta; in experiment [6]) was > 30 µM (inactive) in each case.

Regarding `CC1(C)CNc2cc(NC(=O)c3cccnc3NCc3ccncc3)ccc21` [MOTESANIB], the Kd (in experiment [3]; in experiment [5]; on DNA topoisomerase 2-beta; in experiment [6]) was > 30 µM (inactive) throughout.

On to `C[C@@]1(C(=O)Nc2ccc(F)nc2)CCCN1c1nc(Nc2cc(C3CC3)n[nH]2)c2cccn2n1` [BMS-754807], for which the Kd (in experiment [3]; on DNA topoisomerase 2-beta; in experiment [6]) was > 30 µM (inactive) throughout.

Take `O=S(=O)(c1cccc2cnccc12)N1CCCNCC1` [FASUDIL]: the Kd (in experiment [1]; on Activin receptor type-2B; in [2]; in [3]; in [4]; in [5]) was > 30 µM (inactive) each time. Further, the Kd (on DNA topoisomerase 2-beta; in experiment [6]) was > 30 µM (inactive) in each case.

`N#CCNC(=O)c1ccc(-c2ccnc(Nc3ccc(N4CCOCC4)cc3)n2)cc1` [MOMELOTINIB]: the Kd is 0.004 µM (active) in [1]; > 30 µM (inactive) on Activin receptor type-2B; > 30 µM (inactive) in experiment [2]; > 30 µM (inactive) in [3]; > 30 µM (inactive) in experiment [4]; > 30 µM (inactive) in [5]. Besides, the Kd on DNA topoisomerase 2-beta was > 30 µM (inactive).

For `Cn1c(=O)n(-c2ccc(C(C)(C)C#N)cc2)c2c3cc(-c4cnc5ccccc5c4)ccc3ncc21` [DACTOLISIB], the Kd (in experiment [1]; on Activin receptor type-2B; in experiment [2]; in experiment [3]; in [4]; in experiment [5]) was > 30 µM (inactive) each time. Also, the Kd (on DNA topoisomerase 2-beta; in experiment [6]) was > 30 µM (inactive) throughout.
